Test system: suspension culture of E. peplus
Assay: Precursor feeding of E. peplus suspension culture with angelic acid: cell growth
Assay type: cell-based, Euphorbia peplus
Details: 0.5 mM angelic acid added to E. peplus suspension culture, cultivated for 7-14 days; sterile water as negative control
Protocol: Further increase of Ingenol-3-angelate was achieved using angelic acid as a precursor. A suspension culture of E. peplus, newly transferred or up to 14 days old, was supplemented with 0.5 mM angelic acid. […] The same amount of sterile water was used as a negative control. After addition of angelic acid, the culture was cultivated for 7-14 days (see FIG. 6).

In the case of C/C=C(/C)C(=O)O [angelic acid, 2-methyl-2(Z)-butenoic acid], the “influence on cell growth” value is reported as “no influence on cell growth”.

Source: patent US10172306B2, “Production of ingenol, ingenol esters and/or tiglian-3-one derivatives by euphorbiaceae plant cell suspension cultures” (Phyton Holdings, LLC, priority 2015, dated 2019)
